Legend:
Type in all cases: cell-based
[1] = system: Moraxella catarrhalis (BCA); assay: MIC, two-fold agar dilution (CLSI), clinical isolates
In short: (§1)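 Following the American Clinical and Laboratory Standards Institute procedure, agar two-fold dilution served to determine minimum inhibitory concentrations.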

[2] = system: methicillin-sensitive Staphylococcus epidermidis (MSSE); assay: as above
In short: as §1

[3] = system: methicillin-sensitive Staphylococcus aureus (MSSA); assay: as above
In short: as §1

[4] = system: methicillin-resistant Staphylococcus epidermidis (MRSE); assay: as above
In short: as §1

[5] = system: methicillin-resistant Staphylococcus aureus (MRSA); assay: as above
In short: as §1

[6] = system: Escherichia coli (including ESBLs, non-ESBLs); assay: as above
In short: as §1

[7] = system: Enterococcus faecium (EFM); assay: as above
In short: as §1

[8] = system: Streptococcus pneoumoniae (SPN); assay: as above
In short: as §1

[9] = system: Enterococcus faecalis (EFA); assay: as above
In short: as §1

[10] = system: MGC-803 gastric cancer cell line; assay: CCK-8 proliferation inhibition; conditions: Homo sapiens, MGC-803, 72 h, concentration of 30 μM
In short: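 Using media specific to each line (1640 for MGC-803 and Jurkat, F12 for PC3, DMEM high glucose for MCF-7, each with 10% newborn bovine serum), cells at 2000/well were treated for 72 h with serially formulated compounds, then assessed with CCK-8 diluted 1:10.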

[11] = system: A549 lung cancer cell line; assay: CCK-8 proliferation inhibition; conditions: concentration of 30 μM
In short: (§2)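 Plating at 2000 cells/well, then incubation overnight at 37° C. Next, a range of compound concentrations for 72 hours (control 1‰ DMSO). Finally, medium decanted and CCK-8 diluted 1:10 added.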

[12] = system: BEL-7402 liver cancer cell line; assay: CCK-8 proliferation inhibition; conditions: concentration of 30 μM
In short: as §2

[13] = system: HCT-116 colorectal cancer cell line; assay: CCK-8 proliferation inhibition; conditions: concentration of 30 μM, 72 hours, CCK-8
In short: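 Proliferation over 72 hours of compound treatment was measured with CCK-8 against a 1‰ DMSO control.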

CCCC[C@H](CC(=O)NO)C(=O)N1CC2(CC2)C[C@H]1C(=O)Nc1ccc(F)cn1 [Example 46, (S)—N-(5-fluoropyridin-2-yl)-5-((R)-2-(2-(hydroxyamino)-2-oxoethyl)hexanoyl)-5-spiro[2.4]heptane-6-carboxamide]
Anti-bacterial activity (MIC), strain BCA 14-1 ([1]; clinical isolate BCA 14-1): 1 µg/mL | Anti-bacterial activity (MIC), strain BCA 14-4 ([1]; clinical isolate BCA 14-4): 1 µg/mL | Anti-bacterial activity (MIC), strain BCA 14-5 ([1]; clinical isolate BCA 14-5): 0.5 µg/mL | Anti-bacterial activity (MIC), strain BCA 14-6 ([1]; clinical isolate BCA 14-6): 0.5 µg/mL | Anti-bacterial activity (MIC), strain BCA 14-7 ([1]; clinical isolate BCA 14-7): 1 µg/mL | Anti-bacterial activity (MIC), strain BCA 14-8 ([1]; clinical isolate BCA 14-8): 1 µg/mL | Anti-bacterial activity (MIC), strain BCA 14-10 ([1]; clinical isolate BCA 14-10): 0.5 µg/mL | Anti-bacterial activity (MIC), strain MSSE 15-3 ([2]; clinical isolate MSSE 15-3): 1 µg/mL | Anti-bacterial activity (MIC), strain MSSE 15-4 ([2]; clinical isolate MSSE 15-4): 1 µg/mL | Anti-bacterial activity (MIC), strain MSSE 15-5 ([2]; clinical isolate MSSE 15-5): 1 µg/mL | Anti-bacterial activity (MIC), strain MSSE 15-6 ([2]; clinical isolate MSSE 15-6): 1 µg/mL | Anti-bacterial activity (MIC), strain MSSA 15-3 ([3]; clinical isolate MSSA 15-3): 0.25 µg/mL | Anti-bacterial activity (MIC), strain MSSA 15-4 ([3]; clinical isolate MSSA 15-4): 1 µg/mL | Anti-bacterial activity (MIC), strain MSSA 15-5 ([3]; clinical isolate MSSA 15-5): 1 µg/mL | Anti-bacterial activity (MIC), strain MSSA 15-6 ([3]; clinical isolate MSSA 15-6): > 32 µg/mL | Anti-bacterial activity (MIC), strain MRSE 15-1 ([4]; clinical isolate MRSE 15-1): 1 µg/mL | Anti-bacterial activity (MIC), strain MRSE 15-2 ([4]; clinical isolate MRSE 15-2): 1 µg/mL | Anti-bacterial activity (MIC), strain MRSE 15-3 ([4]; clinical isolate MRSE 15-3): 1 µg/mL | Anti-bacterial activity (MIC), strain MRSE 15-7 ([4]; clinical isolate MRSE 15-7): 1 µg/mL | Anti-bacterial activity (MIC), strain MRSA 15-1 ([5]; clinical isolate MRSA 15-1): 0.25 µg/mL | Anti-bacterial activity (MIC), strain MRSA 15-2 ([5]; clinical isolate MRSA 15-2): 1 µg/mL | Anti-bacterial activity (MIC), strain MRSA 15-3 ([5]; clinical isolate MRSA 15-3): 1 µg/mL | Anti-bacterial activity (MIC), strain MRSA 15-4 ([5]; clinical isolate MRSA 15-4): 1 µg/mL | Anti-bacterial activity (MIC), strain ECO+ 15-1 ([6]; clinical isolate ECO+ 15-1): 32 µg/mL | Anti-bacterial activity (MIC), strain ECO+ 15-2 ([6]; clinical isolate ECO+ 15-2): > 32 µg/mL | Anti-bacterial activity (MIC), strain ECO+ 15-3 ([6]; clinical isolate ECO+ 15-3): > 32 µg/mL | Anti-bacterial activity (MIC), strain ECO+ 15-4 ([6]; clinical isolate ECO+ 15-4): 1 µg/mL | Anti-bacterial activity (MIC), strain ECO− 15-1 ([6]; clinical isolate ECO− 15-1): > 32 µg/mL | Anti-bacterial activity (MIC), strain ECO− 15-2 ([6]; clinical isolate ECO− 15-2): > 32 µg/mL | Anti-bacterial activity (MIC), strain ECO− 15-3 ([6]; clinical isolate ECO− 15-3): > 32 µg/mL | Anti-bacterial activity (MIC), strain ECO− 15-4 ([6]; clinical isolate ECO− 15-4): > 32 µg/mL | Anti-bacterial activity (MIC), strain EFM 15-1 ([7]; clinical isolate EFM 15-1): > 32 µg/mL | Anti-bacterial activity (MIC), strain EFM 15-2 ([7]; clinical isolate EFM 15-2): > 32 µg/mL | Anti-bacterial activity (MIC), strain EFM 15-3 ([7]; clinical isolate EFM 15-3): > 32 µg/mL | Anti-bacterial activity (MIC), strain EFM 15-4 ([7]; clinical isolate EFM 15-4): > 32 µg/mL | Anti-bacterial activity (MIC), strain EFM 15-5 ([7]; clinical isolate EFM 15-5): 0.5 µg/mL | Anti-bacterial activity (MIC), strain EFM 15-6 ([7]; clinical isolate EFM 15-6): 1 µg/mL | Anti-bacterial activity (MIC), strain SPN 16-2 ([8]; clinical isolate SPN 16-2): 0.5 µg/mL | Anti-bacterial activity (MIC), strain SPN 16-4 ([8]; clinical isolate SPN 16-4): 0.5 µg/mL | Anti-bacterial activity (MIC), strain EFA 15-1 ([9]; clinical isolate EFA 15-1): > 32 µg/mL | Anti-bacterial activity (MIC), strain EFA 15-2 ([9]; clinical isolate EFA 15-2): > 32 µg/mL | Anti-bacterial activity (MIC), strain EFA 15-3 ([9]; clinical isolate EFA 15-3): > 32 µg/mL | Anti-bacterial activity (MIC), strain EFA 15-4 ([9]; clinical isolate EFA 15-4): > 32 µg/mL | Anti-bacterial activity (MIC), strain EFA 15-5 ([9]; clinical isolate EFA 15-5): > 32 µg/mL | Anti-bacterial activity (MIC), strain EFA 15-6 ([9]; clinical isolate EFA 15-6): > 32 µg/mL | Anti-bacterial activity (MIC), strain EFA 15-9 ([9]; clinical isolate EFA 15-9): 4 µg/mL | inhibition at 30 µM [10]: 48% | inhibition at 30 µM ([11]; Homo sapiens, A549, 72 h): > 50% | Inhibition of proliferation, Lung cancer A549 ([11]; 72 hours, 30 µM): 60% | inhibition at 30 µM ([12]; Homo sapiens, Bel-7402, 72 h): > 50% | Inhibition of proliferation, Liver cancer BEL-7402 ([12]; 72 hours, 30 µM): 70% | inhibition at 30 µM ([13]; Homo sapiens, HCT-116, 72 h, read-out: HCT116 inhibition rate/%): > 50% | HCT116 inhibition rate/% ([13]; 30 µM): 58%

— patent US10738028B2, “Spiro three-membered ring, spiro five-membered ring peptide deformylase inhibitor and use thereof in antibacteria and anti-tumor” (priority 2016, dated 2020)
